{"source": "paper PMC9256669", "about": "“Monomethyl auristatin antibody and peptide drug conjugates for trimodal cancer chemo-radio-immunotherapy” (Nature Communications, 2022)", "key": {"[1]": {"test_system": "B16 tumors", "assay": "NanoString nCounter PanCancer Mouse Immune Profiling of tumors", "type": "in vivo, C57BL/6 mice", "settings": "ACPP-MMAE alone vs vehicle", "protocol": "RNA was isolated from cells or tumor tissues and comprehensive immune profiling was analyzed using the NanoString PanCancer IO 360 Panel and NanoString nCounter PanCancer Mouse Immune Profiling gene expression platforms. Gene set analysis with calculated global significance scores and directed significance scores were calculated for treated cells. The Advanced Analysis module of the nSolver software was used to analyze genes associated with listed immune cells in tumors and given a Z-score (n = 3 mice per group). Expression levels of GZMB were analyzed using real-time quantitative PCR. Reverse transcription was performed with the iScript cDNA synthesis kit (Biorad), using aliquots of total RNA extracted with RNeasy Plus Mini Kit (Qiagen). Gene-specific primers were GZMB-F […] and GZMB-R […]. Real-time PCR reactions were performed using the CFX Connect Real-Time PCR System (Biorad) and the amplifications were done using the iTaq Universal SYBR Green Supermix (Biorad). qPCR data were analyzed using the Bio-Rad CFX Maestro software.\nSupplementary Data 1: Complete NanoString expression data of Figure 1b. Untreated control (n=2) and 5 nM MMAE treated (n=3) B16 cells were harvested at 72 hrs. RNA was collected and analyzed using NanoString PanCancer IO 360 Panel. […]\nwere harvested. RNA was collected and analyzed using NanoString nCounter PanCancer Mouse Immune Profiling panel. […]"}, "[2]": {"test_system": "B16 tumors", "assay": "Subcutaneous tumor therapy, CDX3379-MMAE or CDX3379-MMAF with IR, mouse survival", "type": "in vivo, C57BL/6 mice", "procedure": "(§3) MOC1, B16, LL/2, and MC38 tumor cells were injected subcutaneously into the hindlimbs of 6-week-old female C57BL/6 albino mice in 100 µl of 1:1 Matrigel (BD) and PBS solution. Fractionated IR was delivered focally to the tumor-bearing hindlimbs (3 Gy to MC38 tumors and 5 Gy to LL/2 and B16 tumors) as indicated in figure legends using a PXI X-RAD 225 XL irradiator at maximal dose rate of 3 Gy/min with a beam-conditioning aluminum filter (Precision X-ray Irradiation). For RAG1 KO studies, 6-week-old female Rag1^tm1Mom mice were injected subcutaneously with tumor cells in their hindlimbs (Jackson Labs). For CD8 depletion studies, mice were i.p. injected with anti-CD8 (BioXCell #BE0117) at 10 mg/kg on days −6, −5 and −4 tumor cell implant and then weekly starting on day after tumor cells were injected or control antibody. […] Tumor volumes were measured and calculated using the formula as ½ * length * width^2. Mice were sacrificed when tumor volume reached >1500 mm^3, maximal tumor volume approved on our protocol for subcutaneous tumors."}, "[3]": {"test_system": "B16 tumors", "settings": "status at the day printed in the same line, one line per mouse", "procedure": "as §3"}, "[4]": {"test_system": "HCT116", "assay": "Cytotoxicity, Alamar Blue assay", "type": "cell-based, human", "settings": "72 h drug exposure, one value per biological replicate", "protocol": "(§1) Cells were plated in 96-well plates and exposed to a drug concentration range for 72 h. Alamar Blue was added to the cells and allowed to incubate for 2–4 h at 37 °C. Plates were analyzed using a plate reader with fluorescence measured at 560 nm. Fractional survival was normalized to untreated control cell fluorescent values. Drug IC50 was calculated using Prism software (GraphPad, La Jolla, CA). Cell viability, cytotoxicity and apoptosis were also measured by ApoTox-Glo Triplex Assay (Promega)."}, "[5]": {"test_system": "A549", "assay": "Cytotoxicity, Alamar Blue assay", "type": "cell-based, human", "settings": "72 h drug exposure, one value per biological replicate", "protocol": "as §1"}, "[6]": {"test_system": "MC38", "assay": "Cytotoxicity, Alamar Blue assay", "type": "cell-based, murine", "settings": "MC38, 72 h drug exposure, one value per biological replicate, read-out: IC50 values", "protocol": "(§2) Murine colorectal (MC38 (ENH204-FP)) cancer cell lines were obtained from Kerafast. Murine head and neck MOC1 and MOC2 were generously provided by Dr. R. Uppaluri. CAL27 PIK3CA H1047R expressing cells and 4MOSC1 cells were generated in Dr. Gutkind’s laboratory and previously characterized[42],[55]. […] MC38 cells were cultured in DMEM supplemented with 10% FBS, 1 mM sodium pyruvate (Gibco), 1% non-essential amino acids (Gibco), and 10 mM HEPES (Gibco). MOC1 and MOC2 cells were cultured in IMDM (Lonza)/F-12K nutrient mixture at a 2:1 mixture with 5% FBS, 5 ng/ml EGF (EMD Millipore), 400 ng/ml hydrocortisone (Sigma), and […] insulin (Sigma). On receipt, each cell line was expanded, cryopreserved as low passage stocks, and routinely tested for mycoplasma. Cisplatin (Enzo Biosciences), paclitaxel (Sigma), and MMAE (Concortis) were reconstituted in DMSO. Clinical-grade CDX3379 was provided by Celldex. Clinical grade cetuximab (Erbitux, Lilly Medical) was obtained from UCSD Moores Cancer Center Pharmacy.\nas §1"}, "[7]": {"test_system": "4MOSC1", "assay": "Cytotoxicity, Alamar Blue assay", "type": "cell-based, murine", "settings": "4MOSC1, 72 h drug exposure, one value per biological replicate, read-out: IC50 values", "protocol": "as §2, §1"}, "[8]": {"test_system": "B16", "assay": "Cytotoxicity, Alamar Blue assay", "type": "cell-based, murine", "settings": "B16, 72 h drug exposure, one value per biological replicate, read-out: IC50 values", "protocol": "as §2, §1"}, "[9]": {"test_system": "B16 cells", "assay": "Cell cycle analysis", "type": "cell-based, murine", "settings": "for G2/M fraction: Figure 3c, single replicates", "protocol": "Cells were MMAE treated for 24 h, fixed in 70% ethanol, stained with FxCyclePI/RNase solution (Life Technologies), and then analyzed by FACS using FlowJo software."}, "[10]": {"test_system": "MOC2", "assay": "Cytotoxicity, Alamar Blue assay", "type": "cell-based, murine", "settings": "MOC2, 72 h drug exposure, one value per biological replicate, read-out: IC50 values", "protocol": "as §2, with “Clinical-grade CDX3379 was provided by Celldex.” left out\nas §1\nmeasured by Alamar Blue assay. For Alamar Blue assay cytotoxicity, we measured cell viability at 72 hr of […]"}}, "note": "“And” between values parts separate entries of the source, which are not always exact repeats. Equal entries are not always repeated. “Also recorded” adds a separate entry of the source. Where two headings read alike, the source gives them in different places. Non-standard residues stand in square brackets, D forms with d. Residues, ends and D or L forms follow the SMILES beside them. *: point of attachment. Dolaproine = CO[C@@H]([C@@H]1CCCN1)[C@@H](C)C(=O)O; Dil = CC[C@H](C)[C@H](NC)[C@@H](CC(=O)O)OC; X1 = C[C@@H](N*)[C@@H](O)c1ccccc1; NMeV = CN[C@H](C(=O)O)C(C)C"}
{"compound": "cyclo(RGD)fc-MC-HN-peg8-e9-oPLGC(Me)AG-r9-c-(MC-VC-PABC-MMAE)-CONH2 [ACPP-MMAE]", "values": [{"measurement": "tumor infiltration of immune cell types (NanoString)", "setting": "[1]", "value": "minimal effects"}]}
{"compound": "CDX3379-MMAE: anti-HER3 antibody CDX3379 with 4 MMAE per antibody via MC-VC-PABC linker, labeled with Cy5", "values": [{"measurement": "tumor control and survival, + IR", "setting": "[2]; B16, 2.5 nmoles ADC x 2 doses + IR 5 Gy x 3", "value": "prolonged tumor control and survival; also recorded: superior to CDX3379-MMAF"}, {"measurement": "Mouse survival, status", "setting": "[2]; with IR, individual mice, status at the day, Figure 3h", "value": "1 and 0"}, {"measurement": "Survival curve, status", "setting": "[3]; CDX3379-MMAE + IR + αPD1", "value": 0}, {"measurement": "Survival curve, status", "setting": "[3]; CDX3379-MMAE + IR", "value": "0 and 1"}]}
{"compound": "CC[C@H](C)[C@@H]([C@@H](CC(=O)N1CCC[C@H]1[C@H](OC)[C@@H](C)C(=O)N[C@H](C)[C@@H](O)c1ccccc1)OC)N(C)C(=O)[C@@H](NC(=O)[C@@H](NC)C(C)C)C(C)C", "note": "[MMAE, monomethyl auristatin E] (H-[NMeV]V[Dil][Dolaproine]-X1)", "values": [{"measurement": "IC50", "setting": "[4]", "value": "0.343 nM and 0.431 nM and 0.548 nM and 1.43 nM and 1.52 nM and 1.35 nM"}, {"measurement": "IC50", "setting": "[5]", "value": "0.559 nM and 0.513 nM"}, {"measurement": "IC50", "setting": "[6]", "value": "14.4 nM and 14.9 nM and 30.4 nM"}, {"measurement": "IC50", "setting": "[7]", "value": "1.82 nM and 1.52 nM"}, {"measurement": "IC50", "setting": "[8]", "value": "1.77 nM and 2.33 nM and 1.94 nM and 3.12 nM"}, {"measurement": "G2/M fraction", "setting": "[9]; MMAE 1 nM", "value": "0.13 and 0.12"}, {"measurement": "G2/M fraction", "setting": "[9]; MMAE 2 nM", "value": "0.12 and 0.14"}, {"measurement": "G2/M fraction", "setting": "[9]; MMAE 5 nM", "value": "0.23 and 0.25"}, {"measurement": "G2/M fraction", "setting": "[9]; MMAE 10 nM", "value": "0.73 and 0.76"}, {"measurement": "cell cycle effect", "setting": "[9]; MMAE-treated cells", "value": "arresting cells in the radiosensitive mitotic phase of the cell cycle"}, {"measurement": "IC50", "setting": "[10]", "value": "9.29 nM and 11.1 nM"}]}
